The source made the active and inactive calls.
How the values were obtained:
[1] = Inhibition of T. cruzi Tulahuen strain amastigotes in L-6 muscle cells Measured in Cell-Based and Microorganism Combination System Using Plate Reader - 2138-03_Inhibitor_Dose_CherryPick_Activity.; assay type: functional; conditions: Rattus norvegicus, L6
[2] = L. donovani amastigote growth inhibition, dose response, axenic amastigotes, plate reader, cherry pick (AID 651891); assay type: functional, cell-based; conditions: Leishmania donovani
[3] = growth inhibition of intracellular T. cruzi, dose response, cell-based, plate reader, dry powder samples (AID 651845); assay type: functional
[4] = T. b. rhodesiense proliferation inhibition, dose response, STIB900 strain, plate reader, cherry pick (AID 651893); assay type: functional, cell-based; conditions: Trypanosoma brucei
[5] = T. cruzi growth inhibition in host cells, dose response, cell-based, plate reader, dry powder, set 2 (AID 652275); assay type: functional
[6] = cytotoxicity in L-6 rat myocytes, dose response, cytotoxicity control, cell-based, plate reader, cherry-pick (AID 651896); assay type: functional
[7] = T. cruzi intracellular amastigote growth inhibition, dose response, imaging, CA-I/72 strain, bovine embryo skeletal muscle, dry powder (AID 651885); assay type: functional, cell-based
[8] = intracellular Trypanosoma cruzi inhibitors in host cells – cell-based, plate reader, cherry-pick samples, set 3, dose response (AID 651818); assay type: functional;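 note: compounds incubated with infected cells for about four days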
[9] = Inhibition of Plasmodium falciparum NF54 Measured in Cell-Based System Using Plate Reader - 2138-11_Inhibitor_Dose_CherryPick_Activity.; assay type: functional
[10] = target: T1, Mannose-6-phosphate isomerase (Homo sapiens, UniProt P34949); assay: human PMI inhibitors, high substrate, primary screen, biochemical, fluorescence intensity, high mannose 6-phosphate (AID 1220)
T1 sequence (P34949 whole entry): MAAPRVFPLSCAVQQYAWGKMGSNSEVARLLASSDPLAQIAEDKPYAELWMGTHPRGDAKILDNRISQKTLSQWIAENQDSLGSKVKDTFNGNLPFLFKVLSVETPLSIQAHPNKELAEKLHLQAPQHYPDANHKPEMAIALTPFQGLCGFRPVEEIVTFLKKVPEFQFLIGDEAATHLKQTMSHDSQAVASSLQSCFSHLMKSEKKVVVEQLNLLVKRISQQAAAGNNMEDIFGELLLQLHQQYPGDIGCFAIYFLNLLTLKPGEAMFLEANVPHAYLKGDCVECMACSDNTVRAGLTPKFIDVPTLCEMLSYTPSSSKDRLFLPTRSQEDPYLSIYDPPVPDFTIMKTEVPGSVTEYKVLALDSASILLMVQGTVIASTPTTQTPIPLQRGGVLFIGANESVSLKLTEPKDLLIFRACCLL

[11] = target: Heat shock protein HSP90 (Homo sapiens, UniProt P07900+P08238); assay: tumor Hsp90 inhibitor potency, dose response (AID 712); assay type: functional
[12] = P. falciparum Dd2 growth inhibitors, dose response, SYBR Green, dry powder samples, set 9 (AID 1159568); assay type: functional, cell-based
[13] = P. falciparum Dd2 growth inhibitors, dose response, SYBR Green, dry powder samples (AID 1159566); assay type: functional, cell-based;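 note: potency for growth inhibition with lower SYBR green DNA signal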
[14] = HepG2 cell cytotoxicity, dose response, cytotoxicity control, plate reader, dry powder samples (AID 1159569); assay type: functional, cell-based;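 note: inhibitor potency with signal falling toward the positive control level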
[15] = P. falciparum ATP4 D1247Y mutant growth inhibitors, dose response, NITD609-resistant line, SYBR Green, dry powder (AID 1159571); assay type: functional, cell-based;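 note: parasites synchronized at ring stage by sorbitol before testing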
[16] = P. falciparum 3D7-ScDHODH growth inhibitors, dose response, SYBR Green, dry powder samples (AID 1159570); assay type: functional, cell-based;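 note: parasite growth measured after 72 hours of compound exposure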
[17] = P. falciparum Dd2 growth inhibitors, dose response, SYBR Green, cherry-picked samples (AID 1159567); assay type: functional, cell-based
[18] = target: T2, Cytochrome P450 2C19 (Homo sapiens, UniProt P33261); assay: Cytochrome panel assay with activity outcomes. Panel member name: p450-cyp2c19 Compounds with AC50 equal or less than 10 uM are considered active; assay type: functional; conditions: read-out: AC50
[19] = target: T2, Cytochrome P450 2C19; assay: qHTS Assay for Inhibitors and Substrates of Cytochrome P450 2C19. [Related pubchem assays: 410 ]; assay type: ADME; conditions: read-out: Potency
[20] = target: Cytochrome P450 2D6 (Homo sapiens, UniProt P10635);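 note: CYP2D6 member of a cytochrome P450 panel assay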
[21] = half-maximal inhibitory concentration for glucagon-like peptide-1 release, STC-1 cell line, dose-response (AID 1117345); assay type: functional, cell-based
[22] = Glucagon-like peptide 1 release potency, NCI-H716 cell line, dose-response, half-maximal inhibitory concentration (AID 1117344); assay type: functional, cell-based
[23] = HeLa 4N DNA content increase, dose response, cell-based, IC50 (AID 1117351); assay type: functional
[24] = HeLa 2N DNA content increase, dose response, cell-based, IC50 (AID 1117349); assay type: functional
[25] = cells; assay type: functional, cell-based; conditions: INS-1E
[26] = Dose-response inhibition of insulin secretion in a rat insulinoma line at 5 mM glucose (AID 1117331); assay type: functional, cell-based; conditions: INS-1E

T2 sequence (P33261 whole entry): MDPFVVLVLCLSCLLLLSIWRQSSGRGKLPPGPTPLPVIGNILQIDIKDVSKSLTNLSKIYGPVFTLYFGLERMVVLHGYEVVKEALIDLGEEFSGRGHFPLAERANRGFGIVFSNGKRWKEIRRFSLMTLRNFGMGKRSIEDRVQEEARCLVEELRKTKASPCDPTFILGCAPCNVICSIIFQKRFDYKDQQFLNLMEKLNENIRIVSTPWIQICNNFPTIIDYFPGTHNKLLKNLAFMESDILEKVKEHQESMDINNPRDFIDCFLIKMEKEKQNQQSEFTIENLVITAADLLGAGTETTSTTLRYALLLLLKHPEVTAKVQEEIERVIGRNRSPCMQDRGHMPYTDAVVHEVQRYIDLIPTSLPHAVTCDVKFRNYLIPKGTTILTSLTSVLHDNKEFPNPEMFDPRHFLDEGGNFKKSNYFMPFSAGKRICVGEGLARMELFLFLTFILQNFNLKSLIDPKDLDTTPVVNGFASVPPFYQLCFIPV
Sequence of Cytochrome P450 2D6 (P10635 whole entry): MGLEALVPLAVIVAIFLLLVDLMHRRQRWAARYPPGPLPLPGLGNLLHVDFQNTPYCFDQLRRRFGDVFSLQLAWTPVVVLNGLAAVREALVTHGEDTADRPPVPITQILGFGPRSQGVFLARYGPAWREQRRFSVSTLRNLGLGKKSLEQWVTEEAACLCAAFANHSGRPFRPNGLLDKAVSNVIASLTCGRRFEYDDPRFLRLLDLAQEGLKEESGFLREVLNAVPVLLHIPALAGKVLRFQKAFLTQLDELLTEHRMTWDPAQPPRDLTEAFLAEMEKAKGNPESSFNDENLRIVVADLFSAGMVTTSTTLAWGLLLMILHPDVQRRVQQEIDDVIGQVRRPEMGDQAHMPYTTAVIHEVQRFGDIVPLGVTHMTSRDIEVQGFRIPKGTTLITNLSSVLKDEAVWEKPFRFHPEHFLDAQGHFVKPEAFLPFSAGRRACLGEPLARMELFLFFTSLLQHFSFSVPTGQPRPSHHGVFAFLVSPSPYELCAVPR

With `COc1ccc(CN(C)C[C@H]2Oc3c(NC(=O)c4ccncc4)cccc3C(=O)N([C@@H](C)CO)C[C@@H]2C)cc1` the IC50 [1] was 8.41 µM (inactive), the IC50 [2] was > 100 µM (inactive) and the AC50 [3] was 0.127 µM (active). The IC50 [4] was 15.4 µM (inactive), the AC50 [5] was 0.127 µM (active) and the IC50 [6] was > 100 µM (inactive). The IC50 [7] was 0.478 µM (active), the AC50 [8] was 0.25 µM (active) and the IC50 [9] was 8.41 µM (inactive).
In the case of `CCOC(=O)c1c(C)oc2c1c(/C=N/CC1CCCO1)c(O)c1ccccc12` (stereo unspecified), the IC50 [10] is reported as > 50 µM (not active) and the IC50 [11] is reported as 13.307 µM.
With `O=C(Nc1ccccc1F)N1CCCCN2[C@H](CO)[C@@H](c3ccc(/C=C/c4ccccc4)cc3)[C@@H]2C1` the AC50 [12] was 6.45 µM (active).
With `C[C@H](CO)N1C[C@H](C)[C@H](CN(C)S(=O)(=O)c2ccc(F)cc2)OCc2ccccc2-c2c(n(C)c3ccccc23)C1=O` the AC50 [13] was 0.36 µM (active), the AC50 [14] was 7.35 µM (active) and the AC50 [15] was 0.481 µM (active). The AC50 [16] was 0.572 µM (active) and the AC50 [17] was 1.1 µM (active).
In the case of `O=[N+]([O-])c1cccc2c(Br)n[nH]c12`, the AC50 [18] is reported as 0.251 µM (inconclusive), the AC50 [19] is reported as 0.001 µM (inconclusive) and the AC50 [20] is reported as 0.251 µM (inconclusive).
With `c1ccc2sc(SSc3nc4ccccc4s3)nc2c1` [BENZOTHIAZYL DISULFIDE] the IC50 [21] was 5.58 µM (inactive) and the IC50 [22] was 9.23 µM (inactive).
In the case of `COC(=O)Nc1nc2cc(C(=O)c3ccccc3)ccc2[nH]1` [MEBENDAZOLE], the IC50 [23] is reported as 0.08 µM (active) and the IC50 [24] is reported as 0.0761 µM (active).
In the case of `Cc1ccc(S(=O)(=O)NC(=O)NN2CCCCCC2)cc1` [TOLAZAMIDE], the IC50 [25] is reported as > 33.3 µM (inactive) and the IC50 [26] is reported as 6.98 µM (inactive).
